Source: patent US20240358668A1, “METHODS AND CO[…] AM[…] CARD[…] USING (R)-2-AMINO-3-PH[…]” (AXSOME THERAPEUTICS, INC., priority 2021, published 2024)

Assays:
Type in all cases: in vivo, human
[1] = 1-year open-label extension (OLE) study: weight change
Experimental: A 1-year open-label extension (OLE) study was performed with 374 participants to examined whether clinically significant weight loss (≥5%) in this population had favorable effects on biomarkers of cardiovascular risk compared to no such weight loss. The study measured changes in weight and BP (parent study baseline to OLE week 40) and clinical laboratory assessments (OLE baseline to week 40) in participants with narcolepsy (n=124) or OSA (n=250) who received solriamfetol at doses of 75, 150, or 300 mg/d.
Increased prevalence of obesity has been reported in patients with narcolepsy and obstructive sleep apnea (OSA). […] We examined whether clinically significant weight loss (≥5%) in this population had favorable effects on biomarkers of cardiovascular risk compared to no such weight loss.
We evaluated changes in weight and BP (parent study baseline to OLE week 40) and clinical laboratory assessments (OLE baseline to week 40) in participants with narcolepsy (n=124) or OSA (n=250) from the OLE study.

[2] = test system: participants with narcolepsy; experiment: Study 14-002, 12-week randomized controlled trial: 24-hour ABPM at screening and week 8; details: for effect on percentage of participants with a non-dipping BP profile: screening to week 8, any dose studied
Experimental: (§1) Solriamfetol is a dopamine and norepinephrine reuptake inhibitor indicated to improve wakefulness in adult patients with excessive daytime sleepiness associated with narcolepsy (75-150 mg/d) or obstructive sleep apnea (37.5-150 mg/d). Previous studies reported small mean increases in blood pressure (BP); however, the time course of these effects has not been evaluated. […] These analyses evaluated the effects of solriamfetol treatment on BP using 24-hour ambulatory blood pressure monitoring (ABPM) and on the percentage of narcolepsy patients with a non-dipping BP profile.
Twenty-four-hour ABPM was conducted at baseline and week 8 in a 12-week randomized controlled trial in participants with narcolepsy (n=236). Blood pressure was collected every 30 minutes.

[3] = test system: participants with OSA; experiment: Study 14-003, 12-week randomized controlled trial: 24-hour ABPM at screening and week 8; details: for effect on percentage of participants with a non-dipping BP profile: screening to week 8, any dose studied
Experimental: as §1, with “with” for “with narcolepsy (75-150 mg/d) or”, “(OSA; 37.5-150 mg/d) or narcolepsy (75-150” for “(37.5-150”, “OSA” for “narcolepsy”
Twenty-four-hour ABPM was conducted at baseline and week 8 in a 12-week randomized controlled trial in participants with OSA (n=474). Blood pressure was collected every 30 minutes.

[4] = highest approved dose of 150 mg/d
[5] = 37.5 mg, listed as solriamfetol

NC(=O)OC[C@H](N)Cc1ccccc1 [Solriamfetol, (R)-2-amino-3-phenylpropyl carbamate]
participants with ≥5% weight loss ([1]; 1-year OLE, narcolepsy or OSA, 75 mg/d): 4.5%
participants with ≥5% weight loss ([1]; 1-year OLE, narcolepsy or OSA, 150 mg/d): 17.3%
participants with ≥5% weight loss ([1]; 1-year OLE, narcolepsy or OSA, 300 mg/d): 32.4%
participants with ≥5% weight gain ([1]; of 374 participants, all doses, 34 participants, week 40): 9.1 % of total population
participants with ≥5% weight loss ([1]; of 374 participants, all doses, 96 participants, week 40): 25.7%
Mean Change in DBP on ABPM from Screening to Week 8, Mean (SD) ([2]; 75 mg): 1.4 (5.13) mmHg
Mean Change in HR on ABPM from Screening to Week 8, Mean (SD) ([2]; 75 mg): 1.0 (7.95) bpm
Mean Change in SBP on ABPM from Screening to Week 8, Mean (SD) ([2]; 75 mg): 1.8 (6.53) mmHg
Mean Change in DBP on ABPM from Screening to Week 8, Mean (SD) ([2]; 75 mg, listed as solriamfetol): 1.4 mmHg
Mean Change in SBP on ABPM from Screening to Week 8, Mean (SD) ([2]; 75 mg, listed as solriamfetol): 1.8 mmHg
Mean Change in DBP on ABPM from Screening to Week 8, Mean (SD) ([2]; 150 mg): 0.4 (4.46) mmHg
Mean Change in HR on ABPM from Screening to Week 8, Mean (SD) ([2]; 150 mg): 0.7 (7.12) bpm
Mean Change in SBP on ABPM from Screening to Week 8, Mean (SD) ([2]; 150 mg): −0.5 (5.51) mmHg
Mean Change in DBP on ABPM from Screening to Week 8, Mean (SD) ([2]; 150 mg, listed as solriamfetol): 0.4 mmHg
Mean Change in SBP on ABPM from Screening to Week 8, Mean (SD) ([2]; 150 mg, listed as solriamfetol): −0.5 mmHg
Mean Change in DBP on ABPM from Screening to Week 8, Mean (SD) ([2]; 300 mg): 3.0 (4.97) mmHg
Mean Change in HR on ABPM from Screening to Week 8, Mean (SD) ([2]; 300 mg): 5.3 (7.55) bpm
Mean Change in SBP on ABPM from Screening to Week 8, Mean (SD) ([2]; 300 mg): 2.4 (5.97) mmHg
Mean Change in DBP on ABPM from Screening to Week 8, Mean (SD) ([2]; 300 mg, listed as solriamfetol): 3.0 mmHg
Mean Change in SBP on ABPM from Screening to Week 8, Mean (SD) ([2]; 300 mg, listed as solriamfetol): 2.4 mmHg
percentage of non-dippers (<10% decrease in MAP during sleep) ([2]; combined solriamfetol, week 8 (baseline 48%)): 39%
time course of effects on BP (24-hour ABPM) [2, 4]: transient across the day
effect on percentage of participants with a non-dipping BP profile [2]: not observed to have an increase
effect on percentage of participants with a non-dipping BP profile ([2]; listed as solriamfetol): did not increase
Mean Change in DBP on ABPM from Screening to Week 8, Mean (SD) ([3]; 37.5 mg): 0.8 (6.09) mmHg
Mean Change in HR on ABPM from Screening to Week 8, Mean (SD) ([3]; 37.5 mg): 0.7 (5.57) bpm
Mean Change in SBP on ABPM from Screening to Week 8, Mean (SD) ([3]; 37.5 mg): 0.7 (10.19) mmHg
Mean Change in DBP on ABPM from Screening to Week 8, Mean (SD) [3, 5]: 0.8 mmHg
Mean Change in SBP on ABPM from Screening to Week 8, Mean (SD) [3, 5]: 0.7 mmHg
Mean Change in DBP on ABPM from Screening to Week 8, Mean (SD) ([3]; 75 mg): 0.7 (6.55) mmHg
Mean Change in HR on ABPM from Screening to Week 8, Mean (SD) ([3]; 75 mg): 0.4 (7.70) bpm
Mean Change in SBP on ABPM from Screening to Week 8, Mean (SD) ([3]; 75 mg): 2.2 (9.82) mmHg
Mean Change in DBP on ABPM from Screening to Week 8, Mean (SD) ([3]; 75 mg, listed as solriamfetol): 0.7 mmHg
Mean Change in SBP on ABPM from Screening to Week 8, Mean (SD) ([3]; 75 mg, listed as solriamfetol): 2.2 mmHg
Mean Change in DBP on ABPM from Screening to Week 8, Mean (SD) ([3]; 150 mg): −0.2 (5.10) mmHg
Mean Change in HR on ABPM from Screening to Week 8, Mean (SD) ([3]; 150 mg): 1.5 (6.53) bpm
Mean Change in SBP on ABPM from Screening to Week 8, Mean (SD) ([3]; 150 mg): −0.5 (8.64) mmHg
Mean Change in DBP on ABPM from Screening to Week 8, Mean (SD) ([3]; 150 mg, listed as solriamfetol): −0.2 mmHg
Mean Change in SBP on ABPM from Screening to Week 8, Mean (SD) ([3]; 150 mg, listed as solriamfetol): −0.5 mmHg
Mean Change in DBP on ABPM from Screening to Week 8, Mean (SD) ([3]; 300 mg): 2.5 (8.66) mmHg
Mean Change in HR on ABPM from Screening to Week 8, Mean (SD) ([3]; 300 mg): 1.9 (5.56) bpm
Mean Change in SBP on ABPM from Screening to Week 8, Mean (SD) ([3]; 300 mg): 2.9 (13.41) mmHg
Mean Change in DBP on ABPM from Screening to Week 8, Mean (SD) ([3]; 300 mg, listed as solriamfetol): 2.5 mmHg
Mean Change in SBP on ABPM from Screening to Week 8, Mean (SD) ([3]; 300 mg, listed as solriamfetol): 2.9 mmHg
percentage of non-dippers (<10% decrease in MAP during sleep) ([3]; combined solriamfetol, week 8 (baseline 55%)): 53%
time course of effects on BP (24-hour ABPM) [3, 4]: transient across the day
effect on percentage of participants with a non-dipping BP profile [3]: not observed to have an increase
effect on percentage of participants with a non-dipping BP profile ([3]; listed as solriamfetol): did not increase
